Test results as given in ChEMBL document CHEMBL1140425, “Discovery of indoles as potent and selective inhibitors of the deacetylase SIRT1” (J Med Chem, 2005).
Values belong to the molecule of their own block, whether it stands above or below them.

What was measured:
[1] = molecular target: CYP2D6 (Homo sapiens, UniProt P10635); experiment: Percent inhibitory activity against human CYP2D6 at 1uM; format: ADME
[2] = molecular target: hERG (KCNH2) potassium channel (Homo sapiens, UniProt Q12809); experiment: Percentage inhibitory activity against hERG potassium channel transfected in CHO cells at 10uM; conditions: CHO cells transfected with hERG
[3] = molecular target: CYP2C9 (Homo sapiens, UniProt P11712); experiment: Percent inhibitory activity against human CYP2C9 at 1uM; format: ADME
[4] = molecular target: CYP2C19 (Homo sapiens, UniProt P33261); experiment: Percent inhibitory activity against human CYP2C19 at 1uM; format: ADME
[5] = molecular target: Histone deacetylase; experiment: Inhibitory activity against human HDAC in HeLa cell extract by fluorimetric assay; format: cell-free
[6] = molecular target: T1, CYP1A2 (Homo sapiens, UniProt P05177); experiment: Percent inhibitory activity against human CYP1A2 at 1uM; format: ADME
T1 sequence (P05177 whole entry): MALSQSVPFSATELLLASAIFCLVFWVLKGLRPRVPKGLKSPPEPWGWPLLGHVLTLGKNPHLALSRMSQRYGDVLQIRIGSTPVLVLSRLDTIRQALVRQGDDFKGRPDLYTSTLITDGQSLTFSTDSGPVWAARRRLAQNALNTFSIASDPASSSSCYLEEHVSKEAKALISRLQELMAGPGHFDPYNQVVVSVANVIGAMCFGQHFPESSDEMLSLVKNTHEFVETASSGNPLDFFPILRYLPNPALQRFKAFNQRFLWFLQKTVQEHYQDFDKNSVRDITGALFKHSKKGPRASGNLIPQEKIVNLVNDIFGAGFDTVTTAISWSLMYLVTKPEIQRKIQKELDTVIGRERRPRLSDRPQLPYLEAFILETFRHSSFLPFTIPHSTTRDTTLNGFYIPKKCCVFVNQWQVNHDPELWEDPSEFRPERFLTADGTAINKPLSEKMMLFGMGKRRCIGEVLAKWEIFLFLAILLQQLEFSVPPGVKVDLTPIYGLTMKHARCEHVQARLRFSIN

[7] = molecular target: CYP3A4 (Homo sapiens, UniProt P08684); experiment: Percent inhibitory activity against human CYP3A4 at 1uM; format: ADME
[8] = molecular target: T2, NAD-dependent protein deacetylase sirtuin-3, mitochondrial (Homo sapiens, UniProt Q9NTG7); experiment: Inhibitory activity against recombinant human SIRT3 expressed in Escherichia coli by fluorimetric assay
T2 sequence (Q9NTG7 whole entry): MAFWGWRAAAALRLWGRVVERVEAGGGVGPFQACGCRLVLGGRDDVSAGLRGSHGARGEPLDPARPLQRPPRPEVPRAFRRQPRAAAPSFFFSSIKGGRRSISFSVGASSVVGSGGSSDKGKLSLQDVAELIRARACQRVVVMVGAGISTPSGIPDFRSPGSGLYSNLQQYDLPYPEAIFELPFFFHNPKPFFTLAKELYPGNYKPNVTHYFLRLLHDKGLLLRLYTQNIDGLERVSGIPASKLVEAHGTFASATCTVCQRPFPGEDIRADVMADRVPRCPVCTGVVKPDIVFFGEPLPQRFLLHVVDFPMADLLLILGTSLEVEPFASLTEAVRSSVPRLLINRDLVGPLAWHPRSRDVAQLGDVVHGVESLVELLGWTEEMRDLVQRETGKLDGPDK

[9] = molecular target: T3, NAD-dependent protein deacetylase sirtuin-2 (Homo sapiens, UniProt Q8IXJ6)
T3 sequence (Q8IXJ6 whole entry): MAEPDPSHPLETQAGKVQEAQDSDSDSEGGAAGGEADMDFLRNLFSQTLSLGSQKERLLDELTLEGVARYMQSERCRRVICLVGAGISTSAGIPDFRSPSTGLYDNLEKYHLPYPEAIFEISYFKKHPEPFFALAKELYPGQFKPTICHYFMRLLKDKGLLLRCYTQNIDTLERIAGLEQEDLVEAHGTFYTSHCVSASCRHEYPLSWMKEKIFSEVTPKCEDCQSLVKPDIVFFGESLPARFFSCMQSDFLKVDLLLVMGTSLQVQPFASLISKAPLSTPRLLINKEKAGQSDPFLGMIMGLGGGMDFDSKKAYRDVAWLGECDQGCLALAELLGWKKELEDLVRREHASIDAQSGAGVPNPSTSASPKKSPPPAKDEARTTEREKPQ
Description: Inhibitory activity against recombinant human SIRT2 expressed in Escherichia coli by fluorimetric assay

[10] = molecular target: T4, NAD-dependent protein deacetylase sirtuin-1 (Homo sapiens, UniProt Q96EB6)
T4 sequence (Q96EB6 whole entry): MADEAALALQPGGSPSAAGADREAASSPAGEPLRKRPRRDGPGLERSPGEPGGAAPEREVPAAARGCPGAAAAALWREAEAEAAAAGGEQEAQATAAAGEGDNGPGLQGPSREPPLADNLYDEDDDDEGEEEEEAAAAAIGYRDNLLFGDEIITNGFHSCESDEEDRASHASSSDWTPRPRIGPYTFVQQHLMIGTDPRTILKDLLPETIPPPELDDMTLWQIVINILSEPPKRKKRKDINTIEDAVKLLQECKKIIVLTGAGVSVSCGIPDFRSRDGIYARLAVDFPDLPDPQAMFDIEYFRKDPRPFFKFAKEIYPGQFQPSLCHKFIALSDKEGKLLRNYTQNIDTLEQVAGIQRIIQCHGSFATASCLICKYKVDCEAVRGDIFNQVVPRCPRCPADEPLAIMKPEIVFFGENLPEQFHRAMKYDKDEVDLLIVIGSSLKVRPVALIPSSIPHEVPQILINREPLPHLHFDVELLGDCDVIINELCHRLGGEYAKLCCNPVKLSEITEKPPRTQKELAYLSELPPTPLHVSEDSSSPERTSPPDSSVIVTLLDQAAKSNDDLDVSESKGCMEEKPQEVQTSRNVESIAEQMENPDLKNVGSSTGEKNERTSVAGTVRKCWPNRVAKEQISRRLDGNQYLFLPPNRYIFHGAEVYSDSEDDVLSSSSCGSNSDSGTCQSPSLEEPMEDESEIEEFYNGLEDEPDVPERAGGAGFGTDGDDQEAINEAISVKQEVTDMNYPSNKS
Description: Inhibitory activity against human SIRT1 by radiochemical Nicotinamide release assay

[11] = molecular target: T4, NAD-dependent protein deacetylase sirtuin-1; remark: listed apart in the source
Description: Inhibitory activity against recombinant human SIRT1 expressed in Escherichia coli by fluorimetric assay

[12] = Half life in rat liver microsomes; format: ADME, Microsome
[13] = Serum half life in mice administered with 10 mg/kg, po; format: ADME, organism-based; design: dose 10 mg/kg, route oral; conditions: C57bl/6J, mouse
[14] = system: Liver microsomes; experiment: Stability in rat liver microsomes at 10 uM; format: ADME, Microsome

Chain of CYP3A4 (P08684 whole entry): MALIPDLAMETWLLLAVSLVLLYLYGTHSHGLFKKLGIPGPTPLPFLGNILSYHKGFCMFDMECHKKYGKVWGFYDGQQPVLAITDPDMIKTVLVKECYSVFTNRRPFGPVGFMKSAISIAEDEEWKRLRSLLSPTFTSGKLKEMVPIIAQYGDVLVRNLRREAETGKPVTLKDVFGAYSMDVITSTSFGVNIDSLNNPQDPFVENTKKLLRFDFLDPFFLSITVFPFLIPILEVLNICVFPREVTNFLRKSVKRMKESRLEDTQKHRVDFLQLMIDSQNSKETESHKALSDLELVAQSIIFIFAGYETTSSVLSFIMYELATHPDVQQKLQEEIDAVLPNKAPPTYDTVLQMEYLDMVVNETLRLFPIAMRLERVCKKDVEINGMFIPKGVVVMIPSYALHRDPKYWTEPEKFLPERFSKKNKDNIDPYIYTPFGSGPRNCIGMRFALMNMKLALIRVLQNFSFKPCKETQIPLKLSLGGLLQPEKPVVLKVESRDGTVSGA
Chain of CYP2C19 (P33261 whole entry): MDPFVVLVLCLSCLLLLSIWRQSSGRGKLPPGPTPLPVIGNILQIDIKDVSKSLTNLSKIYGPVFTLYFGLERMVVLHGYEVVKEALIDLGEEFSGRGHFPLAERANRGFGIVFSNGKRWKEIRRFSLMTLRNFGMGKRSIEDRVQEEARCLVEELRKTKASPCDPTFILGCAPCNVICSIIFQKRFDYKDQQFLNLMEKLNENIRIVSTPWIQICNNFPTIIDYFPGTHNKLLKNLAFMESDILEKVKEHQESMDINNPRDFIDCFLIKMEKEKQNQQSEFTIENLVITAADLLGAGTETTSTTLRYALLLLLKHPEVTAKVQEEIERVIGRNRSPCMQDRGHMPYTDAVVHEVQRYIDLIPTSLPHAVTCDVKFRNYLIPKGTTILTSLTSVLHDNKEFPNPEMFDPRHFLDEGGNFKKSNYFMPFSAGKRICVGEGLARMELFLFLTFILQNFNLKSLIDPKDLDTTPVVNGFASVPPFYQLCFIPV
Chain of hERG (KCNH2) potassium channel (Q12809 whole entry): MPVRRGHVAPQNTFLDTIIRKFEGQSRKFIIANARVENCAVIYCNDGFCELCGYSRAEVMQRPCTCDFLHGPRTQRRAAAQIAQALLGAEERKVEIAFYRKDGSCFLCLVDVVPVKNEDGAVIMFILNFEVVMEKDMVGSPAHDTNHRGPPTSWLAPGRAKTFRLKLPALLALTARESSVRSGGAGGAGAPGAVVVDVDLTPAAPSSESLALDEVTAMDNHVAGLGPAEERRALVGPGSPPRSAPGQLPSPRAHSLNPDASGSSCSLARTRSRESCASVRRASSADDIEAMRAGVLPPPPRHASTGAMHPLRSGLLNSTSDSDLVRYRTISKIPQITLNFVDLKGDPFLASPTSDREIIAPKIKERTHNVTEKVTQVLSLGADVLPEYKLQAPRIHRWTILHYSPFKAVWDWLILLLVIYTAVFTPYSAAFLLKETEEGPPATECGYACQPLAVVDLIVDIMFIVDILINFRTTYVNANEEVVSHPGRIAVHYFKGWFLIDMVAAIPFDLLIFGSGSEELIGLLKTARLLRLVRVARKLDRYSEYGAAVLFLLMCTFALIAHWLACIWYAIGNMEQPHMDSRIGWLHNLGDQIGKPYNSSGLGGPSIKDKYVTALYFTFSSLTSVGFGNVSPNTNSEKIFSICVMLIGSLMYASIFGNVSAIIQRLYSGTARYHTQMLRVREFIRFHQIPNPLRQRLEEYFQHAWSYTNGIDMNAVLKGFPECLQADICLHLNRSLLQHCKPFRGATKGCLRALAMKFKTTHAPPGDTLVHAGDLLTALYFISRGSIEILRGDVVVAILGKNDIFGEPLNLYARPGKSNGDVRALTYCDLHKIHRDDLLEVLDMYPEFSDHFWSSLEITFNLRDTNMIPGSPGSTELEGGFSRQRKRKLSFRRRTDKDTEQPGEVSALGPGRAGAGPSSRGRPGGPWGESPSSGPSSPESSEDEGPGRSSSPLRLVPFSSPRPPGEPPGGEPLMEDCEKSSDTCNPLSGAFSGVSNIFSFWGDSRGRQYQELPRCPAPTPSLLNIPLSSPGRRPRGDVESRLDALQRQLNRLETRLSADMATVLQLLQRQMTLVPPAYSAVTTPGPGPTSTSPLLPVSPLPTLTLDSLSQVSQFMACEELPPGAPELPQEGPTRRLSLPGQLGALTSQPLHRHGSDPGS
Chain of CYP2D6 (P10635 whole entry): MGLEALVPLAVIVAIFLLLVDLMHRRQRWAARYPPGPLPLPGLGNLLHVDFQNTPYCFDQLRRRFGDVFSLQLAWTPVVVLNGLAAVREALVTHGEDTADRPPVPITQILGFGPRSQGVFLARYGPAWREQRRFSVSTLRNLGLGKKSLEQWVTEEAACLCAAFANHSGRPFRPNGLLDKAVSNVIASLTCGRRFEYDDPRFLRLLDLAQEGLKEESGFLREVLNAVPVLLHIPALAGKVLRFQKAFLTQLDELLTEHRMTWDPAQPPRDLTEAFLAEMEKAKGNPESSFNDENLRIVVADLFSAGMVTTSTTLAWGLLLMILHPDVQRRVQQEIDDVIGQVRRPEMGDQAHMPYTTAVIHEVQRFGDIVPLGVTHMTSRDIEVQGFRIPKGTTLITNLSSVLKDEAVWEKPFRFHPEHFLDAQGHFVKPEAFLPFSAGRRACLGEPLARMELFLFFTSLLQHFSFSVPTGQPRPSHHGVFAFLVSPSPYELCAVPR
Chain of CYP2C9 (P11712 whole entry): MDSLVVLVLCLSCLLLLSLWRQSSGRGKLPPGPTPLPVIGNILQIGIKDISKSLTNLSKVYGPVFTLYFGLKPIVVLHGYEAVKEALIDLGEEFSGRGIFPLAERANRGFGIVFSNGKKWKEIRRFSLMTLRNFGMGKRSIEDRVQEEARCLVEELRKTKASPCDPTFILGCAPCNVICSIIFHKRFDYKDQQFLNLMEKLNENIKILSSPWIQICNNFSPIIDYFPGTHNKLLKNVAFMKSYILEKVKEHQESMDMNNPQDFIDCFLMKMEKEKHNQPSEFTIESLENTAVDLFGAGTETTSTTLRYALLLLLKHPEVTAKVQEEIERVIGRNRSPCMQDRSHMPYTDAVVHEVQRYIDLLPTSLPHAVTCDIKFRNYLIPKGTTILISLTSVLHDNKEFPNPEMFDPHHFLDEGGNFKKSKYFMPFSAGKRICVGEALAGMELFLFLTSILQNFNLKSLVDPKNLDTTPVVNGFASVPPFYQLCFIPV

inhibition at 1 µM [1]: -4%
inhibition at 1 µM [3]: -8%
inhibition at 1 µM [4]: 5%
IC50 [5]: > 100 µM
inhibition at 1 µM [6]: 4%
inhibition at 1 µM [7]: -22%
IC50 [8]: > 100 µM
IC50 [9]: 24.8 µM
SMILES: NC(=O)C1CCCc2c1[nH]c1ccccc21 (configuration not stated)
inhibition at 10 µM [2]: 0%

inhibition at 1 µM [1]: -3%
IC50 [10]: 2500 nM
inhibition at 1 µM [3]: -9%
inhibition at 1 µM [4]: 9%
IC50 [5]: > 100 µM
inhibition at 1 µM [6]: 7%
inhibition at 1 µM [7]: -16%
IC50 [8]: > 100 µM
IC50 [9]: 11.5 µM
IC50 [11]: 0.205 µM
SMILES: Cc1ccc2[nH]c3c(c2c1)CCCC3C(N)=O (configuration not stated)
inhibition at 10 µM [2]: 0%

IC50 [11]: > 100 µM
SMILES: CCOC(=O)C1CCCc2c1[nH]c1ccc(Cl)cc21 (configuration not stated)

IC50 [11]: > 100 µM
SMILES: NC(=O)CNC(=O)C1CCCc2c1[nH]c1ccc(Cl)cc21 (configuration not stated)

IC50 [11]: > 100 µM
SMILES: O=C(O)C1CCCc2c1[nH]c1ccc(Cl)cc21 (configuration not stated)

IC50 [11]: 77.6 µM
SMILES: O=C(NO)C1CCCc2c1[nH]c1ccc(Cl)cc21 (configuration not stated)

IC50 [11]: 34.5 µM
SMILES: NC(=O)C1CCc2c([nH]c3ccc(Cl)cc23)C1 (configuration not stated)

IC50 [11]: > 100 µM
SMILES: Cc1ccc2[nH]c3c(c2c1)CCCC3CN (configuration not stated)

IC50 [11]: > 100 µM
SMILES: CCNC(=O)C1CCCc2c1[nH]c1ccc(Cl)cc21 (configuration not stated)

IC50 [11]: 0.409 µM
SMILES: NC(=O)C1CCc2c1[nH]c1ccc(Cl)cc21 (configuration not stated)

IC50 [11]: 2.67 µM
SMILES: NC(=O)C1CCc2c1[nH]c1ccccc21 (configuration not stated)

IC50 [11]: 79.9 µM
SMILES: CC(=O)N1CCc2c([nH]c3ccc(Cl)cc23)C1C(N)=O (configuration not stated)

IC50 [11]: > 100 µM
SMILES: Cc1ccc2c(c1)c1c(n2C)C(C(N)=O)CCC1 (configuration not stated)

IC50 [11]: > 100 µM
SMILES: CCN(CC)C(=O)C1CCCc2c1[nH]c1ccc(Cl)cc21 (configuration not stated)

IC50 [11]: 2.44 µM
SMILES: NC(=O)C1CCc2c([nH]c3ccc(Br)cc23)C1 (configuration not stated)

IC50 [11]: 15 µM
SMILES: NC(=O)C1CCCc2c1[nH]c1ccc(O)cc21 (configuration not stated)

IC50 [11]: 18 µM
SMILES: NC(=O)C1NCCc2c1[nH]c1ccc(Cl)cc21 (configuration not stated)

IC50 [11]: > 100 µM
SMILES: NC(=O)C1NCCc2c1[nH]c1ccc(Br)cc21 (configuration not stated)

IC50 [11]: 13 µM
SMILES: Cc1ccc2[nH]c3c(c2c1)CCCC3(C)C(N)=O (configuration not stated)

inhibition at 1 µM [1]: -5%
half-life [12]: > 60 min
inhibition at 1 µM [3]: -5%
inhibition at 1 µM [4]: 6%
IC50 [5]: > 100 µM
inhibition at 1 µM [6]: 11%
inhibition at 1 µM [7]: -26%
half-life [13]: 136 min
Stability [14]: Stable
SMILES: NC(=O)C1CCCc2c1[nH]c1ccc(Cl)cc21 (configuration not stated)
inhibition at 10 µM [2]: 0%

inhibition at 1 µM [1]: 3%
half-life [12]: > 60 min
inhibition at 1 µM [3]: 11%
inhibition at 1 µM [4]: 23%
IC50 [5]: > 100 µM
inhibition at 1 µM [6]: 23%
inhibition at 1 µM [7]: -12%
IC50 [8]: > 100 µM
half-life [13]: 94 min
Stability [14]: Stable
SMILES: NC(=O)C1CCCCc2c1[nH]c1ccc(Cl)cc21 (configuration not stated)
